Reference: patent US7109338B2, “1,2-disubstituted 1,4-dihydro-4-oxoquinoline compounds” (priority 1999, dated 2006)
Values after ≈ are worked out from the molar mass of the structure shown. Where two headings read alike, the source gives them in different places.

Experiments:
HRV61 (6669-CV39) = assay: Anti-rhinovirus spectrum (MTT), HRV61; assay type: cell-based, human rhinovirus; settings: Enterovirus; Table VII, rhinovirus serotype HRV61
[1] = Cytotoxicity (MTT, without virus), HeLa(Ohio); settings: human, HeLa (Ohio strain) cells (uninfected)
HRV10 (204-CV14) = assay: Anti-rhinovirus spectrum (MTT), HRV10; assay type: cell-based, human rhinovirus; settings: Enterovirus; Table VII, rhinovirus serotype HRV10
HRV 2 (HGP) = assay: Anti-rhinovirus activity (MTT), HRV2; assay type: cell-based, human rhinovirus
[2] = test system: coxsackievirus type B4 (CB4,JVB); assay: In vitro anti-picornavirus activity (MTT), CB4; assay type: cell-based; settings: Coxsackievirus; HeLa cells, MTT method, 37° C.
[3] = test system: clinical isolate (89229T); assay: microbe, parasite or virus in culture; assay type: cell-based, human rhinovirus; settings: Human rhinovirus sp.; Table VII, clinical isolate (89229T); read-out: Anti-rhinovirus activity Clinically isolated strain
[4] = test system: human rhinovirus type 1B (HRV 1B, B632); assay: Anti-rhinovirus activity (MTT), HRV1B; assay type: cell-based
HRV31 (41F) = assay: Anti-rhinovirus spectrum (MTT), HRV31; assay type: cell-based, human rhinovirus; settings: Enterovirus; Table VII, rhinovirus serotype HRV31
HRV13 (353) = assay: Anti-rhinovirus spectrum (MTT), HRV13; assay type: cell-based, human rhinovirus; settings: Enterovirus; Table VII, rhinovirus serotype HRV13
HRV41 (56110) = assay: Anti-rhinovirus spectrum (MTT), HRV41; assay type: cell-based, human rhinovirus; settings: Enterovirus; Table VII, rhinovirus serotype HRV41
HRV50(A2#58) = assay: Anti-rhinovirus spectrum (MTT), HRV50; assay type: cell-based, human rhinovirus; settings: Enterovirus, HRV50, read-out: Anti-rhinovirus activity HRV50
HRV1A (E28) = assay: Anti-rhinovirus activity (MTT), HRV1A; assay type: cell-based, human rhinovirus; settings: HRV1A
HRV14 (1059) = assay: Anti-rhinovirus activity (MTT), HRV14; assay type: cell-based, human rhinovirus
HRV16 (11757) = assay: Anti-rhinovirus spectrum (MTT), HRV16; assay type: cell-based, human rhinovirus; settings: Enterovirus; Table VII, rhinovirus serotype HRV16
[5] = Cytotoxicity (MTT, without virus), HeLa; settings: human, HeLa cells (uninfected)
[6] = test system: Poliovirus type 1 (Polio 1, Sabin); assay: microbe, parasite or virus in culture; assay type: cell-based; settings: Enterovirus C, HeLa S3, read-out: IC50 Polio 1
[7] = test system: coxsackievirus type A7 (CA7); assay: In vitro anti-picornavirus activity (MTT), CA7; assay type: cell-based; settings: Coxsackievirus; HeLa-S3 cells, MTT method, 37° C.
HRV21 (47) = assay: Anti-rhinovirus spectrum (MTT), HRV21; assay type: cell-based, human rhinovirus; settings: Enterovirus; Table VII, rhinovirus serotype HRV21
[8] = Cytotoxicity (MTT, without virus), HeLa-S3; settings: human, HeLa-S3 cells (uninfected)
HRV32 (363) = assay: Anti-rhinovirus spectrum (MTT), HRV32; assay type: cell-based, human rhinovirus; settings: Enterovirus; Table VII, rhinovirus serotype HRV32
HRV8(MRH) = assay: Anti-rhinovirus spectrum (MTT), HRV8; assay type: cell-based, human rhinovirus; settings: Enterovirus; Table VII, rhinovirus serotype HRV8
HRV29 (5582) = assay: Anti-rhinovirus spectrum (MTT), HRV29; assay type: cell-based, human rhinovirus; settings: Enterovirus; Table VII, rhinovirus serotype HRV29
HRV39 (209) = assay: Anti-rhinovirus spectrum (MTT), HRV39; assay type: cell-based, human rhinovirus; settings: Enterovirus; Table VII, rhinovirus serotype HRV39
HRV36 (342H) = assay: Anti-rhinovirus spectrum (MTT), HRV36; assay type: cell-based, human rhinovirus; settings: Enterovirus; Table VII, rhinovirus serotype HRV36
[9] = test system: echovirus type 11 (Echo 11, Gregory); assay: In vitro anti-picornavirus activity (MTT), Echo 11; assay type: cell-based; settings: Enterovirus B; HeLa-S3 cells, MTT method, 37° C.
HRV3(FEB) = assay: Anti-rhinovirus spectrum (MTT), HRV3; assay type: cell-based, human rhinovirus; settings: Enterovirus; Table VII, rhinovirus serotype HRV3
HRV5 = assay: Anti-rhinovirus spectrum (MTT), HRV5; assay type: cell-based, human rhinovirus; settings: Enterovirus; Table VII, rhinovirus serotype HRV5
HRV33 (1200) = assay: Anti-rhinovirus spectrum (MTT), HRV33; assay type: cell-based, human rhinovirus; settings: Enterovirus; Table VII, rhinovirus serotype HRV33
HRV 89 (41617-Gallo) = assay: Anti-rhinovirus activity (MTT), HRV89; assay type: cell-based, human rhinovirus
[10] = Human rhinovirus sp., HRV2, HeLa (Ohio strain) cells, MTT method, 33° C., read-out: IC50 HRV2
[11] = Human rhinovirus sp., HRV1B, HeLa (Ohio strain) cells, MTT method, 33° C., read-out: IC50 HRV1B
[12] = Human rhinovirus sp., HRV89, HeLa (Ohio strain) cells, MTT method, 33° C., read-out: IC50 HRV89
[13] = Human rhinovirus sp., HeLa, read-out: IC50 HRV 1A
[14] = Human rhinovirus sp., HRV14, HeLa (Ohio strain) cells, MTT method, 33° C., read-out: IC50 HRV 14

Question: Which IC50 (HRV61 (6669-CV39)) does the source give for `Cc1c(-c2ccccc2)n(-c2ccccc2)c2ccc(C(C)C)cc2c1=O` [Compound A320, 1,2-Diphenyl-3-methyl-6-isopropyl-1,4-dihydro-4-oxoquinoline] here?
Answer: 0.21 µg/mL (≈ 0.594 µM)

Question: What about the CC50 at 4 days [1] of the same compound?
Answer: > 5 µg/mL

Question: And the IC50 (HRV10 (204-CV14))?
Answer: 0.021 µg/mL (≈ 0.0594 µM)

Question: What about the IC50 (HRV 2 (HGP); Enterovirus, Table VII, rhinovirus serotype HRV2, read-out: Anti-rhinovirus activity HRV2) of the same compound?
Answer: 0.051 µg/mL (≈ 0.144 µM)

Question: And the IC50 (HRV 2 (HGP); [10])?
Answer: 0.051 µg/mL (≈ 0.144 µM)

Question: And the IC50 [2]?
Answer: > 5 µg/mL

Question: What about the melting point of the same compound?
Answer: 225 °C

Question: What about the IC50 [3] of the same compound?
Answer: 0.017 µg/mL (≈ 0.0481 µM)

Question: What about the IC50 [4, 11] of the same compound?
Answer: 0.12 µg/mL (≈ 0.339 µM)

Question: What about the IC50 ([4]; Table VII, rhinovirus serotype HRV1B, read-out: Anti-rhinovirus activity HRV1B) of the same compound?
Answer: 0.12 µg/mL (≈ 0.339 µM)

Question: And the IC50 (HRV31 (41F))?
Answer: 0.046 µg/mL (≈ 0.13 µM)

Question: And the IC50 (HRV13 (353))?
Answer: 0.23 µg/mL (≈ 0.651 µM)

Question: What about the IC50 (HRV41 (56110)) of the same compound?
Answer: 0.066 µg/mL (≈ 0.187 µM)

Question: What about the IC50 (HRV50(A2#58)) of the same compound?
Answer: 0.02 µg/mL (≈ 0.0566 µM)

Question: And the IC50 (HRV1A (E28); Enterovirus, read-out: Anti-rhinovirus activity HRV1A)?
Answer: > 5 µg/mL

Question: And the IC50 (HRV14 (1059); Enterovirus, Table VII, rhinovirus serotype HRV14, read-out: Anti-rhinovirus activity HRV14)?
Answer: > 5 µg/mL

Question: And the IC50 (HRV16 (11757))?
Answer: 0.023 µg/mL (≈ 0.0651 µM)

Question: What about the CC50 at 4 days [5] of the same compound?
Answer: > 5 µg/mL

Question: What about the IC50 [6] of the same compound?
Answer: > 5 µg/mL

Question: And the IC50 [7]?
Answer: > 5 µg/mL

Question: And the IC50 (HRV21 (47))?
Answer: 0.024 µg/mL (≈ 0.0679 µM)

Question: What about the CC50 at 4 days [8] of the same compound?
Answer: > 5 µg/mL

Question: What about the IC50 (HRV32 (363)) of the same compound?
Answer: 0.051 µg/mL (≈ 0.144 µM)

Question: And the IC50 (HRV8(MRH))?
Answer: > 5 µg/mL

Question: What about the IC50 (HRV29 (5582)) of the same compound?
Answer: 0.079 µg/mL (≈ 0.224 µM)

Question: And the IC50 (HRV39 (209))?
Answer: < 0.017 µg/mL

Question: And the IC50 (HRV36 (342H))?
Answer: 0.082 µg/mL (≈ 0.232 µM)

Question: And the IC50 [9]?
Answer: 0.15 µg/mL (≈ 0.424 µM)

Question: And the IC50 (HRV3(FEB))?
Answer: > 5 µg/mL

Question: And the IC50 (HRV5)?
Answer: > 5 µg/mL

Question: And the IC50 (HRV33 (1200))?
Answer: 0.23 µg/mL (≈ 0.651 µM)

Question: And the IC50 (HRV 89 (41617-Gallo); Enterovirus, Table VII, rhinovirus serotype HRV89, read-out: Anti-rhinovirus activity HRV89)?
Answer: 0.051 µg/mL (≈ 0.144 µM)

Question: And the IC50 (HRV 89 (41617-Gallo); [12])?
Answer: 0.051 µg/mL (≈ 0.144 µM)

Question: For `CCn1c2c(c(=O)c3cc(C(C)C)ccc31)Cc1ccsc1-2` [Compound D50, 10-Ethyl-7-isopropyl-5,10-dihydro-4H-thieno[3′,2′:4,5]cyclopenta[1,2-b]quinolin-5-one], which CC50 at 4 days [1] is on record?
Answer: > 10 µg/mL

Question: And the IC50 (HRV 2 (HGP); [10])?
Answer: 0.2 µg/mL (≈ 0.646 µM)

Question: And the IC50 [2]?
Answer: 0.82 µg/mL (≈ 2.65 µM)

Question: And the melting point?
Answer: 168 to 169 °C

Question: What about the IC50 [4, 11] of the same compound?
Answer: 0.25 µg/mL (≈ 0.808 µM)

Question: And the IC50 (HRV1A (E28); [13])?
Answer: 2.2 µg/mL (≈ 7.11 µM)

Question: What about the IC50 (HRV14 (1059); [14]) of the same compound?
Answer: 1.3 µg/mL (≈ 4.2 µM)

Question: And the CC50 at 4 days [5]?
Answer: 7.8 µg/mL (≈ 25.2 µM)

Question: What about the IC50 [6] of the same compound?
Answer: 0.64 µg/mL (≈ 2.07 µM)

Question: What about the IC50 [7] of the same compound?
Answer: 1.9 µg/mL (≈ 6.14 µM)

Question: And the CC50 at 4 days [8]?
Answer: > 10 µg/mL

Question: And the IC50 [9]?
Answer: 0.27 µg/mL (≈ 0.873 µM)

Question: What about the IC50 (HRV 89 (41617-Gallo); [12]) of the same compound?
Answer: 0.41 µg/mL (≈ 1.32 µM)

Question: With `CCn1c2c(c(=O)c3cc(C(C)C)ccc31)Cc1ccccc1-2` [Compound B2, 5-Ethyl-8-isopropyl-5,10-dihydro-11H-indeno[1,2-b]quinolin-10-one] as the compound, how does the CC50 at 4 days [1] read?
Answer: > 10 µg/mL

Question: What about the IC50 (HRV 2 (HGP); [10]) of the same compound?
Answer: 0.15 µg/mL (≈ 0.494 µM)

Question: And the IC50 [2]?
Answer: 0.97 µg/mL (≈ 3.2 µM)

Question: What about the IC50 [4, 11] of the same compound?
Answer: 0.54 µg/mL (≈ 1.78 µM)

Question: And the IC50 (HRV1A (E28); [13])?
Answer: 5 µg/mL (≈ 16.5 µM)

Question: What about the IC50 (HRV14 (1059); [14]) of the same compound?
Answer: 0.65 µg/mL (≈ 2.14 µM)

Question: What about the CC50 at 4 days [5] of the same compound?
Answer: > 10 µg/mL

Question: What about the IC50 [6] of the same compound?
Answer: 0.58 µg/mL (≈ 1.91 µM)

Question: And the IC50 [7]?
Answer: 3.1 µg/mL (≈ 10.2 µM)

Question: What about the CC50 at 4 days [8] of the same compound?
Answer: > 10 µg/mL

Question: And the IC50 [9]?
Answer: 0.19 µg/mL (≈ 0.626 µM)

Question: And the IC50 (HRV 89 (41617-Gallo); [12])?
Answer: 0.48 µg/mL (≈ 1.58 µM)

Question: Which CC50 at 4 days [1] does the source give for `CCn1c2c(c(=O)c3cc(C(C)C)ccc31)Cc1cc(C)sc1-2` [Compound D51, 10-Ethyl-7-isopropyl-2-methyl-5,10-dihydro-4H-thieno[3′,2′:4,5]cyclopenta[1,2-b]quinolin-5-one] here?
Answer: > 5 µg/mL

Question: And the IC50 (HRV 2 (HGP); [10])?
Answer: 0.27 µg/mL (≈ 0.835 µM)

Question: And the IC50 [2]?
Answer: 0.72 µg/mL (≈ 2.23 µM)

Question: What about the IC50 [4, 11] of the same compound?
Answer: 0.59 µg/mL (≈ 1.82 µM)

Question: And the IC50 (HRV1A (E28); [13])?
Answer: 3.1 µg/mL (≈ 9.58 µM)

Question: And the IC50 (HRV14 (1059); [14])?
Answer: 0.82 µg/mL (≈ 2.54 µM)

Question: What about the CC50 at 4 days [5] of the same compound?
Answer: > 5 µg/mL

Question: And the IC50 [6]?
Answer: 0.28 µg/mL (≈ 0.866 µM)

Question: And the IC50 [7]?
Answer: 1.1 µg/mL (≈ 3.4 µM)

Question: What about the CC50 at 4 days [8] of the same compound?
Answer: > 5 µg/mL

Question: What about the IC50 [9] of the same compound?
Answer: 0.21 µg/mL (≈ 0.649 µM)

Question: And the IC50 (HRV 89 (41617-Gallo); [12])?
Answer: 0.35 µg/mL (≈ 1.08 µM)
